Data: patent US9212168B2 (priority 2011, dated 2015)

System: HCV genotype 1a replicon
Assay: HCV genotype 1a replicon assay (NS3 protease activity readout)
Assay type: cell-based, hepatitis C virus
Settings: HCV genotype 1a replicon
Protocol: Assay 2: HCV Genotype 1a Replicon Assay
The HCV genotype 1a replicon cell line was obtained from Apath LLC (APC89; Huh7.5 cell background). This subgenomic replicon contains the N-terminus of the HCV core protein fused to the neomycin-resistance selectable marker. The EMCV IRES lies downstream and drives expression of the non-structural proteins NS3-NS5B. Compound potencies were determined using the NS3-specific protease activity in lysates as a measurement of compound inhibition of replicon levels.
Cells were grown at 37° C. in a 5% CO2 humidified incubator in DMEM (Invitrogen) with 10% FBS (HyClone), 1×NEAA (Invitrogen), 1× Pen-Strep (Invitrogen), and 850 μg/mL G418 (Invitrogen). On day 1 of the assay, cells were plated at 15,000 cells/well in black 96-well tissue culture plates (Costar) in 200 μL media lacking G418. Four hours later, once the cells had adhered, the media was removed and replaced with media (no G418) containing dose-responses of test compounds. Compounds were initially diluted in DMSO and then diluted another 200× in media to bring the final DMSO concentration down to 0.5%. The cells were incubated with test compounds for 48 or 72 hours. At the end of the incubation period, media and compound were removed from the plates.
To determine the NS3-specific protease activity in lysates, the cells were lysed at room temperature in 50 μL/well of 50 mM Hepes pH 7.5, 150 mM NaCl, 15% Glycerol, 0.15% Triton X-100, 10 mM DTT for 20 minutes with shaking. 50 μL of an NS3/4a protease-specific FRET substrate (Anaspec RET S1 Cat#22991) was then added to the wells at a final concentration of 15 μM. The plates were incubated at 37° C. for 20 minutes, which corresponds to a timepoint at which the protease activity is still in the linear phase. Protease activity was determined by measuring fluorescence (Excitation: 340 nm; Emission: 509 nm).
To analyze the data, the fluorescence was plotted vs. the compound concentration, and EC50 values were determined from a 4-parameter robust fit model using GraphPad Prism software.

SMILES | Genotype 1a
COC(=O)N[C@H](C(=O)N1C[C@@H](C)C[C@H]1c1nc(-c2ccc(-c3cc(Cl)c(NC(=O)c4ccc(N5C[C@H](C)N(C(=O)[C@H]6CCCN6C(=O)OC)C[C@H]5C)nc4)cc3OC(F)(F)F)cc2)c[nH]1)C(C)C [Example 1-46] | D (D represents pEC50>10 (EC50<0.1 nM))
COC(=O)N[C@H](C(=O)N1C[C@@H](C)C[C@H]1c1nc(-c2ccc(-c3cc(Cl)c(NC(=O)c4ccc(N5CCN(C(=O)[C@H]6CCCN6C(C)=O)C[C@H]5C)nc4)cc3OC(F)(F)F)cc2)c[nH]1)C(C)C [Example 1-47] | D (D represents pEC50>10 (EC50<0.1 nM))
CCC(=O)N1CCC[C@@H]1C(=O)N1CCN(c2ccc(C(=O)Nc3cc(OC(F)(F)F)c(-c4ccc(-c5c[nH]c([C@@H]6C[C@H](C)CN6C(=O)[C@@H](NC(=O)OC)C(C)C)n5)cc4)cc3Cl)cn2)[C@H](C)C1 [Example 1-48] | D (D represents pEC50>10 (EC50<0.1 nM))
COC(=O)N[C@H](C(=O)N1C[C@@H](C)C[C@H]1c1nc(-c2ccc(-c3cc(Cl)c(NC(=O)c4ccc(N5CCN(C(=O)[C@H]6CCCN6C(=O)C(C)C)C[C@H]5C)nc4)cc3OC(F)(F)F)cc2)c[nH]1)C(C)C [Example 1-49] | D (D represents pEC50>10 (EC50<0.1 nM))
COC(=O)N[C@H](C(=O)N1C[C@@H](C)C[C@H]1c1nc(-c2ccc(-c3cc(Cl)c(NC(=O)c4ccc(N5CCN(C(=O)[C@H]6CCCN6C(=O)C(C)(C)C)C[C@H]5C)nc4)cc3OC(F)(F)F)cc2)c[nH]1)C(C)C [Example 1-50] | D (D represents pEC50>10 (EC50<0.1 nM))
COC(=O)N[C@H](C(=O)N1C[C@@H](C)C[C@H]1c1nc(-c2ccc(-c3cc(Cl)c(NC(=O)c4ccc(N5CCN(C(=O)[C@H]6CCCN6C(=O)C6CC6)C[C@H]5C)nc4)cc3OC(F)(F)F)cc2)c[nH]1)C(C)C [Example 1-51] | D (D represents pEC50>10 (EC50<0.1 nM))
COC(=O)N[C@H](C(=O)N1C[C@@H](C)C[C@H]1c1nc(-c2ccc(-c3cc(F)c(NC(=O)c4ccc(N5CCN(C(=O)C6CC6)C[C@H]5C)nc4)cc3C(F)(F)F)cc2)c[nH]1)C(C)C [Example 1-52] | C (C represents pEC50 between and 9 and about 10, (EC50 between 1 nM and 0.1 nM))
COC(=O)N[C@H](C(=O)N1C[C@@H](C)C[C@H]1c1nc(-c2ccc(-c3cc(Cl)c(NC(=O)c4ccc(N5CCN(C(=O)C6CC6)C[C@H]5C)nc4)cc3C(F)(F)F)cc2)c[nH]1)C(C)C [Example 1-54] | D (D represents pEC50>10 (EC50<0.1 nM))
COC(=O)N[C@H](C(=O)N1C[C@@H](C)C[C@H]1c1nc(-c2ccc(-c3cc(F)c(NC(=O)c4ccc(N5CCN(C(=O)C(C)(C)C)C[C@H]5C)nc4)cc3C(F)(F)F)cc2)c[nH]1)C(C)C [Example 1-58] | D (D represents pEC50>10 (EC50<0.1 nM))
COC(=O)N[C@H](C(=O)N1C[C@@H](C)C[C@H]1c1nc(-c2ccc(-c3ccc(NC(=O)c4ccc(N5CCN(C(=O)C(C)(C)C)C[C@H]5C)nc4)cc3C(F)(F)F)cc2)c[nH]1)C(C)C [Example 1-63] | D (D represents pEC50>10 (EC50<0.1 nM))
COC(=O)N[C@H](C(=O)N1C[C@@H](C)C[C@H]1c1nc(-c2ccc(-c3ccc(NC(=O)c4ccc(N5CCN(C(=O)N(C)C)C[C@H]5C)nc4)cc3C(F)(F)F)cc2)c[nH]1)C(C)C [Example 1-64] | C (C represents pEC50 between and 9 and about 10, (EC50 between 1 nM and 0.1 nM))
COC(=O)N[C@H](C(=O)N1C[C@@H](C)C[C@H]1c1nc(-c2ccc(-c3ccc(NC(=O)c4ccc(N5CCN(C(=O)C6CC6)C[C@H]5C)nc4)cc3C(F)(F)F)cc2)c[nH]1)C(C)C [Example 1-65] | C (C represents pEC50 between and 9 and about 10, (EC50 between 1 nM and 0.1 nM))
COC(=O)N[C@H](C(=O)N1C[C@@H](C)C[C@H]1c1nc(-c2ccc(-c3cc(Cl)c(NC(=O)c4ccc(N5CCN(C(C)=O)C[C@H]5C)nc4)cc3OC(F)(F)F)cc2)c[nH]1)C(C)C [Example 1-66] | C (C represents pEC50 between and 9 and about 10, (EC50 between 1 nM and 0.1 nM))
CCCC(=O)N1CCN(c2ccc(C(=O)Nc3cc(OC(F)(F)F)c(-c4ccc(-c5c[nH]c([C@@H]6C[C@H](C)CN6C(=O)[C@@H](NC(=O)OC)C(C)C)n5)cc4)cc3Cl)cn2)[C@H](C)C1 [Example 1-68] | C (C represents pEC50 between and 9 and about 10, (EC50 between 1 nM and 0.1 nM))
CC[C@H](C)C(=O)N1CCN(c2ccc(C(=O)Nc3cc(OC(F)(F)F)c(-c4ccc(-c5c[nH]c([C@@H]6C[C@H](C)CN6C(=O)[C@@H](NC(=O)OC)C(C)C)n5)cc4)cc3Cl)cn2)[C@H](C)C1 [Example 1-69] | D (D represents pEC50>10 (EC50<0.1 nM))
CCCCC(=O)N1CCN(c2ccc(C(=O)Nc3cc(OC(F)(F)F)c(-c4ccc(-c5c[nH]c([C@@H]6C[C@H](C)CN6C(=O)[C@@H](NC(=O)OC)C(C)C)n5)cc4)cc3Cl)cn2)[C@H](C)C1 [Example 1-71] | C (C represents pEC50 between and 9 and about 10, (EC50 between 1 nM and 0.1 nM))
COC(=O)N[C@H](C(=O)N1C[C@@H](C)C[C@H]1c1nc(-c2ccc(-c3cc(Cl)c(NC(=O)c4ccc(N5CCN(C(=O)NC(C)C)C[C@H]5C)nc4)cc3OC(F)(F)F)cc2)c[nH]1)C(C)C [Example 1-72] | D (D represents pEC50>10 (EC50<0.1 nM))
CCC(=O)N1CCN(c2ccc(C(=O)Nc3cc(OC(F)(F)F)c(-c4ccc(-c5c[nH]c([C@@H]6C[C@H](C)CN6C(=O)[C@@H](NC(=O)OC)C(C)C)n5)cc4)cc3Cl)cn2)[C@H](C)C1 [Example 1-73] | D (D represents pEC50>10 (EC50<0.1 nM))
COC(=O)N[C@H](C(=O)N1C[C@@H](C)C[C@H]1c1nc(-c2ccc(-c3ccc(NC(=O)c4ccc(N5CCN(C(=O)[C@H]6CC6(C)C)C[C@H]5C)nc4)cc3OC(F)(F)F)cc2)c[nH]1)C(C)C [Example 1-74] | D (D represents pEC50>10 (EC50<0.1 nM))
COC(=O)N[C@H](C(=O)N1C[C@@H](C)C[C@H]1c1nc(-c2ccc(-c3cc(F)c(NC(=O)c4ccc(N5CCN(C(=O)[C@H]6CC6(C)C)C[C@H]5C)nc4)cc3Cl)cc2)c[nH]1)C(C)C [Example 1-76] | D (D represents pEC50>10 (EC50<0.1 nM))
COC(=O)N[C@H](C(=O)N1C[C@@H](C)C[C@H]1c1nc(-c2ccc(-c3cc(F)c(NC(=O)c4ccc(N5CCN(C(=O)C6(C)CC6)C[C@H]5C)nc4)cc3OC(F)(F)F)cc2)c[nH]1)C(C)C [Example 1-79] | C (C represents pEC50 between and 9 and about 10, (EC50 between 1 nM and 0.1 nM))
COC(=O)N[C@H](C(=O)N1C[C@@H](C)C[C@H]1c1nc(-c2ccc(-c3cc(Cl)c(NC(=O)c4ccc(N5CCN(C(=O)C6(C)CC6)C[C@H]5C)nc4)cc3OC(F)(F)F)cc2)c[nH]1)C(C)C [Example 1-80] | C (C represents pEC50 between and 9 and about 10, (EC50 between 1 nM and 0.1 nM))
COC(=O)N[C@H](C(=O)N1C[C@@H](C)C[C@H]1c1nc(-c2ccc(-c3cc(F)c(NC(=O)c4ccc(N5CCN(C(=O)C6CC6)C[C@H]5C)nc4)cc3F)cc2)c[nH]1)C(C)C [Example 1-83] | C (C represents pEC50 between and 9 and about 10, (EC50 between 1 nM and 0.1 nM))
COC(=O)N[C@H](C(=O)N1C[C@@H](C)C[C@H]1c1nc(-c2ccc(-c3cc(F)c(NC(=O)c4ccc(N5CCN(C(=O)C6CC67CC7)C[C@H]5C)nc4)cc3Cl)cc2)c[nH]1)C(C)C (some centres unmarked) [Example 1-84] | C (C represents pEC50 between and 9 and about 10, (EC50 between 1 nM and 0.1 nM))
COC(=O)N[C@H](C(=O)N1C[C@@H](C)C[C@H]1c1nc(-c2ccc(-c3cc(Cl)c(NC(=O)c4ccc(N5CCN(C(=O)[C@@H]6CCN6C(C)C)C[C@H]5C)nc4)cc3OC(F)(F)F)cc2)c[nH]1)C(C)C [Example 1-85] | B (B represents pEC50 between 8 and 9 (EC50 between 1 and 10 nM))
CC[C@@H](C)C(=O)N1CCN(c2ccc(C(=O)Nc3cc(OC(F)(F)F)c(-c4ccc(-c5c[nH]c([C@@H]6C[C@H](C)CN6C(=O)[C@@H](NC(=O)OC)C(C)C)n5)cc4)cc3Cl)cn2)[C@H](C)C1 [Example 1-86] | D (D represents pEC50>10 (EC50<0.1 nM))
COC(=O)N[C@H](C(=O)N1C[C@@H](C)C[C@H]1c1nc(-c2ccc(-c3cc(Cl)c(NC(=O)c4ccc(N5CCN(C(=O)C6CC67CC7)C[C@H]5C)nc4)cc3OC(F)(F)F)cc2)c[nH]1)C(C)C (some centres unmarked) [Example 1-87] | D (D represents pEC50>10 (EC50<0.1 nM))
COC(=O)N[C@H](C(=O)N1C[C@@H](C)C[C@H]1c1nc(-c2ccc(-c3cc(F)c(NC(=O)c4ccc(N5CCN(C(=O)C6CC67CC7)C[C@H]5C)nc4)cc3OC(F)(F)F)cc2)c[nH]1)C(C)C (some centres unmarked) [Example 1-88] | D (D represents pEC50>10 (EC50<0.1 nM))
COC(=O)N[C@H](C(=O)N1C[C@@H](C)C[C@H]1c1nc(-c2ccc(-c3cc(Cl)c(NC(=O)c4ccc(N5CCN(C(=O)C6CC67CC7)C[C@H]5C)nc4)cc3C(F)(F)F)cc2)c[nH]1)C(C)C (some centres unmarked) [Example 1-89] | D (D represents pEC50>10 (EC50<0.1 nM))
